Reference: publication PMC3694003 (PLoS ONE, 2013)
Where two headings read alike, the source gives them in different places. Bridge positions count the residues as written; N and C are the ends. Ends that are not written are not given here. Peptide text beside a SMILES is read from it.

Legend:
[1] = system: primary activated human lymphocytes (PBMCs); format: cell-based; details: for immunosuppressive activity: mutation in hydrophilic 'bioactive face', Table 1, Figure 2
Experimental: (§1) Purified T-cells were obtained by CD3^+ positive selection using magnetic cell separation method according to manufacturer’s instructions (StemCell Technologies, Grenoble, France). Cells were washed twice with medium and cell viability as well as concentration was determined using the trypan blue exclusion test.
(§2) After cultivation, the cells were assessed in biological tests as described. Alternatively for IL-2 supplementation assays, lymphocytes or purified T-cells were equilibrated for 2 h at 37°C.

[2] = system: purified human T-cells (CD3+); format: cell-based; details: cyclotides 1.8-14 µM
Experimental: as §1, §2

[3] = system: IL-2 surface receptor CD25; format: cell-based, human; details: 4 µM; for IL-2 surface receptor CD25 expression compared to stimulated lymphocytes (ctrl, 100%): mean ± SD
Experimental: as §2
Cultured cells were washed with PBS and stained with PE-labeled anti-human CD25 mAbs (eBioscience) for 15 min at 4°C. Afterwards, the cells were washed twice with PBS and resuspended and transferred into FACS vials and expression of the IL-2 surface receptor α-chain CD25 was measured by FACS analysis using a FACSCalibur instrument.

[4] = system: IL-2 release of activated lymphocytes; format: cell-based, human; details: 4 µM; 24 h then PMA/ionomycin 6 h; mean ± SD
Experimental: as §2
(§3) Cells were treated for 24 or 36 h, respectively and were restimulated with PMA (50 ng/mL) and ionomycin (500 ng/mL) for additional 6 h. Supernatants were harvested by centrifugation and were stored at -20°C. The amount of cytokines was measured and quantified using the FlowCytomix^TM technique according to manufacturer’s instructions (eBioscience) or alternatively intracellular cytokine production was determined. For this purpose the cells were fixed and permeabilized using 4% paraformaldehyde (Sigma-Aldrich) and Perm/Wash solution (Becton Dickinson), followed by staining with PE-conjugated anti-human IFN-γ mAb or anti-human TNF-α mAb (both from eBioscience), respectively. For CD107a degranulation assay, cells were restimulated with PMA (10 or 50 ng/mL, respectively) und ionomycin (100 or 500 ng/mL, respectively) and to each well containing 200 µL of cell suspension, 5 µL (~0.25 µg) PE-conjugated anti-CD107a mAb (eBioscience) were added. After incubation at 37°C for 1 h, 2 µL of 1/10 diluted GolgiStop (Becton Dickinson) was added per well and the plates were incubated for another 2.5 h. Samples were analyzed with a BD FACSCalibur flow cytometer using BD CellQuest Pro Software.

[5] = system: primary human lymphocytes; format: cell-based; details: for proliferation compared to control, pretreated and washed cells with exogenous IL-2 / proliferation compared to control cells, pretreated and washed cells without exogenous IL-2: 4 µM pretreatment, PHA-L 10 µg/mL, day three, mean ± SD, three experiments; for proliferation compared to control, pretreated and washed cells with exogenous IL-2: recombinant human IL-2 added
Experimental: as §2
10 µg/milliliter PHA-L for 1 h. This was followed by washing off the substances and stimuli with PBS and resuspending the cells in medium for further assays as described.

IFN-γ = IFN-γ production of activated lymphocytes; format: cell-based, human; details: 4 µM, mean ± SD; for IFN-γ concentration compared to control: 24 h post stimulation, supernatant, ELISA-based, three experiments
Experimental: as §3

TNF-α = TNF-α production of activated lymphocytes; format: cell-based, human; details: 4 µM, mean ± SD; for TNF-α production compared to control: 36 h post stimulation, intracellular cytokine flow cytometry
Experimental: as §3

[6] = system: degranulation marker LAMP-1 (CD107a); experiment: CD107a degranulation assay; format: cell-based, human; details: 36 h, 4 µM, mean ± SD, three experiments
Experimental: as §3

[7] = system: Ca2+-release in human primary T-cells; experiment: Ca2+-release assay in T-cells; format: cell-based; details: for inhibition or delay of PMA/ionomycin-triggered Ca2+-release after pretreatment: 4 µM overnight (16 h), Fluo-4/Fura Red flow cytometry; for direct change in Ca2+-signaling: 4 µM, Fura-2 loaded T-cells, fluorometer
Experimental: Human primary T-cells (1 x 10^6/mL) were loaded with 1 µM Fura-2 and 0.02% Puronic F-127 for 30 min at 37°C. Cells were centrifuged for 5 min at 1200 rpm and resuspended in RPMI 1640 media supplemented with 10% fetal calf serum, penicillin (100 U/mL) and streptomycin (100 U/mL). 100 µL of cell suspension were transferred into a black 96-well plate with a clear flat-bottom. Briefly before analysis the fluorometer Synergy H4 (BioTek, Winooski, VT) was equilibrated to 37°C. The fluorescence time course was measured with: extinction at 340 and 380 nm, respectively, and emission at 510 nm in 30 sec intervals, while continuously shaking. […] To receive maximum Ca^2+-release, cells were stimulated with PMA (50 ng/mL) and ionomycin (500 ng/mL). For lowest Ca^2+-levels, cells remained untreated. […] (4 µM each) or left untreated over night at 37°C in a 24-well flat-bottom plate. Cells were stained for 15 min with Fluo-4 (2 µM) and Fura Red (4 µM), centrifuged at 1000 rpm for 5 min and resuspended in medium. Ca^2+-release was measured by time-dependent flow cytometry using BD FACSCalibur as described previously. Fluo-4 and Fura Red signals were detected using flow cytometric analysis. After equilibrating basal calcium levels for 60 sec, PMA (50 ng/mL) and ionomycin (500 ng/mL) were added to the preincubated T-cells. Fluorescence ratio was calculated using WEASEL 2.3 software.

il-2 mRNA = experiment: il-2 gene expression, quantitative RT-PCR; format: cell-based, human; details: 4 µM; lymphocytes; normalized to 18s rRNA
Experimental: Total RNA was extracted from controls or treated cells (4 x 10^6) and frozen at -80°C until further use. RNA purification was performed according to the manufacturer’s instructions for the RNeasy mini and RNAse-Free DNAse digestion kits (Qiagen, Hamburg, Germany). The quantity and purity of extracted RNA was measured by nanodrop spectrophotometry (Peqlab, Erlangen, Gemany) and purified RNA was reverse transcribed using the RT^2 First Strand Kit (Qiagen). RT-PCR reactions were carried out on a MyiQ kit (BioRad, Munich, Germany) in a final volume of 25 µL using RT² qPCR Primer Assay (for il-2) and SYBR® Green qPCR master mix (both from Qiagen). Each determination was performed in duplicate and the housekeeping gene 18s rRNA was used as an internal control. The real-time thermal cycler program comprised an initial denaturation step at 95 °C for 10 min followed by a two-step program with 40 cycles (95°C, 15 sec; and 60°C, 60 sec). The relative gene expression of il-2 has been determined by comparative cycle threshold analysis and the data were normalized to the internal housekeeping gene 18s rRNA and the relative mRNA level in the untreated group (untreated PHA-L-activated).

[8] = system: IL-2 release of purified T-cells; experiment: IL-2 secretion of purified T-cells, ELISA-based; format: cell-based, human; details: 4 µM; 24 h then PMA/ionomycin 6 h; relative to [V10K] kalata B1
Experimental: as §2, §3

[9] = system: lymphocytes and purified T-cells; experiment: Cytotoxicity in proliferation experiments; format: cell-based, human; details: analyzed concentration range up to 14 µM
Experimental: as §2

Row | Compound | immunosuppressive activity [1] | suppression of the proliferation of T-cells [2] | IL-2 release of T-lymphocytes compared to control cells [4] | proliferation compared to control, pretreated and washed cells with exogenous IL-2 [5] | proliferation compared to control cells, pretreated and washed cells without exogenous IL-2 [5] | IFN-γ concentration compared to control (IFN-γ) | TNF-α production compared to control (TNF-α) | cells containing degranulation marker LAMP-1 as compared to control [6] | inhibition or delay of PMA/ionomycin-triggered Ca2+-release after pretreatment [7] | direct change in Ca2+-signaling [7] | IL-2 surface receptor CD25 expression compared to stimulated lymphocytes (ctrl, 100%) ([3]; 24 h) | IL-2 surface receptor CD25 expression compared to stimulated lymphocytes (ctrl, 100%) ([3]; 36 h) | level of il-2 mRNA compared to control (il-2 mRNA) | further results
1 | [V10A]: single point-mutated alanine analogue of kalata B1, position 10 (cyclo(GLPVCGETCAGGTCNTPGCTCSWPVCTRN); disulfide 14-26, 5-19, 9-21; ends not checked; UniProt P56254 89-117, looked up, variant V10A) | lost their immunosuppressive activity | did not suppress | – | – | – | – | – | – | – | – | – | – | – | –
2 | [T8K]: single point-mutated lysine analogue of kalata B1, position 8 (GLPVCGEKCVGGTCNTPGCTCSWPVCTRN; ends and bridges not checked; cysteine pairing not given here; UniProt P56254 89-117, looked up, variant T8K) | lost their immunosuppressive activity | did not suppress | – | – | – | – | – | – | – | – | – | – | – | IC50 (µM) ± SD, inhibition of lymphocyte (PBMC) proliferation ([1]; CFSE flow cytometry, day three post stimulation, cyclotides 1.8-14 µM, non-linear regression (fixed slope), mean ± SD, a: n=7, b: n=4, c: n=3): not active (n.a.)^b
3 | [V10K]: single point-mutated lysine analogue of kalata B1, position 10; 'inactive' mutant (GLPVCGETCKGGTCNTPGCTCSWPVCTRN; ends and bridges not checked; cysteine pairing not given here; UniProt P56254 89-117, looked up, variant V10K) | lost their immunosuppressive activity | did not suppress | no effect | did not have any effect | no effect | not affected | did not affect | no influence | Neither cyclotides nor CsA induced any inhibition or a delay | did not induce any change | – | – | – | IL-2 receptor surface level ([3]; time not given): unaffected
4 | cyclosporin A [CsA, reference compound] | – | – | – | – | – | – | – | 42% ± 21 | Neither cyclotides nor CsA induced any inhibition or a delay | did not induce any change | 76% ± 11 | 62% ± 7.3 | clearly decreased | –
5 | CC(C)C[C@@H]1NC(=O)CNC(=O)[C@H](CC(N)=O)NC(=O)[C@H](CCCNC(=N)N)NC(=O)[C@H]([C@@H](C)O)NC(=O)[C@@H]2CSSC[C@@H]3NC(=O)[C@H]([C@@H](C)O)NC(=O)CNC(=O)CNC(=O)[C@H](C(C)C)NC(=O)[C@@H]4CSSC[C@H](NC(=O)[C@H](CCCCN)NC(=O)[C@H](CSSC[C@H](NC(=O)[C@H](C(C)C)NC(=O)[C@@H]5CCCN5C1=O)C(=O)NCC(=O)N[C@@H](CCC(=O)O)C(=O)N[C@@H]([C@@H](C)O)C(=O)N4)NC(=O)CNC(=O)[C@@H]1CCCN1C(=O)[C@H]([C@@H](C)O)NC(=O)[C@H](CC(N)=O)NC3=O)C(=O)N[C@@H](CO)C(=O)N[C@@H](Cc1c[nH]c3ccccc13)C(=O)N1CCC[C@H]1C(=O)N[C@@H](C(C)C)C(=O)N2 [[T20K]] (cyclo(CGETCVGGTCNTPGCKCSWPVCTRNGLPV); disulfide 1-15, 5-17, 10-22 (inferred); ring closure inferred) | – | – | 24% ± 19 | 91% ± 1.4 | 29% ± 24 | 21% ± 13 | did not affect | 49% ± 17 | Neither cyclotides nor CsA induced any inhibition or a delay | did not induce any change | 79% ± 10 | 46% ± 18 | clearly decreased | IC50 ([1]; CFSE flow cytometry, day three post stimulation, cyclotides 1.8-14 µM, non-linear regression (fixed slope), mean ± SD, a: n=7, b: n=4, c: n=3, read-out: IC50 (µM) ± SD, inhibition of lymphocyte (PBMC) proliferation): 1.9 ± 0.6 µM; IC50 ([2]; CFSE flow cytometry, day 3, non-linear regression (fixed slope), mean ± SD, c: n=3, d: n=2, read-out: IC50 (µM) ± SD, inhibition of purified T-cell proliferation): 2.7 ± 0.6 µM; IL-2 release of purified T-cells [8]: significantly decreased; restoring of normal proliferation by addition of IL-2 ([5]; peptide still present throughout the whole cultivation period (not washed off)): ineffective; IFN-γ level compared to control (IFN-γ; 36 h post stimulation, intracellular cytokine flow cytometry): no effect; TNF-α expression compared to control (TNF-α; 24 h post stimulation, supernatant, ELISA-based): 23% ± 11; cytotoxicity [9]: no signs of cytotoxicity
